According to PubChem BioAssay (NCI):
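Test compounds were applied to cells in 96-well plates for 48 hours at 5 doses. At the TGI there is no net growth.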

Assays:
Experiment in all cases: growth of human tumour cells (NCI), 48 h
[1] = tested on: 786-0 renal
[2] = tested on: A549 NSCLC
[3] = tested on: ACHN renal
[4] = tested on: BT-549 breast
[5] = tested on: CAKI-1 renal
[6] = tested on: CCRF-CEM leukemia
[7] = tested on: COLO 205 colon
[8] = tested on: DU-145 prostate
[9] = tested on: EKVX NSCLC
[10] = tested on: HCC-2998 colon
[11] = tested on: HCT-116 colon
[12] = tested on: HCT-15 colon
[13] = tested on: HL-60(TB) leukemia
[14] = tested on: HOP-62 NSCLC
[15] = tested on: HS 578T breast
[16] = tested on: HT29 colon
[17] = tested on: IGROV1 ovarian
[18] = tested on: K-562 leukemia
[19] = tested on: KM12 colon
[20] = tested on: LOX IMVI melanoma
[21] = tested on: M14 melanoma
[22] = tested on: MALME-3M melanoma
[23] = tested on: MCF7 breast
[24] = tested on: MDA-MB-231 breast
[25] = tested on: MDA-MB-435
[26] = tested on: MDA-N
[27] = tested on: MOLT-4 leukemia
[28] = tested on: NCI-H226 lung
[29] = tested on: NCI-H460 lung
[30] = tested on: NCI-H522 lung
[31] = tested on: NCI/ADR-RES ovarian
[32] = tested on: OVCAR-3 ovarian
[33] = tested on: OVCAR-4 ovarian
[34] = tested on: OVCAR-5 ovarian
[35] = tested on: OVCAR-8 ovarian
[36] = tested on: PC-3 prostate
[37] = tested on: RPMI-8226 leukemia
[38] = tested on: RXF 393 renal
[39] = tested on: SF-268 CNS
[40] = tested on: SF-295 CNS
[41] = tested on: SF-539 CNS
[42] = tested on: SK-MEL-2 melanoma
[43] = tested on: SK-MEL-28 melanoma
[44] = tested on: SK-OV-3 ovarian
[45] = tested on: SN12C renal
[46] = tested on: SNB-19 CNS
[47] = tested on: SNB-75 CNS
[48] = tested on: SR leukemia
[49] = tested on: SW-620 colon
[50] = tested on: TK-10 renal
[51] = tested on: U251 CNS
[52] = tested on: UACC-257 melanoma
[53] = tested on: UACC-62 melanoma
[54] = tested on: UO-31 renal
[55] = tested on: NCI-H23 lung
[56] = tested on: SK-MEL-5 melanoma
[57] = tested on: A498 renal
[58] = tested on: HOP-92 NSCLC

Measured: TGI

Cc1ccc(N(C)S(=O)(=O)c2ccc([N+](=O)[O-])cc2)cc1
> 100 µM: [1] | [2] | [3] | [4] | [5] | [6] | [7] | [8] | [9] | [10] | [11] | [12] | [13] | [14] | [15] | [16] | [17] | [18] | [19] | [20] | [21] | [22] | [23] | [24] | [25] | [26] | [27] | [28] | [29] | [30] | [31] | [32] | [33] | [34] | [35] | [36] | [37] | [38] | [39] | [40] | [41] | [42] | [43] | [44] | [45] | [46] | [47] | [48] | [49] | [50] | [51] | [52] | [53] | [54]

C=CCN(C(=O)OC(C)(C)C)C1=CC2C(C)=CN(S(=O)(=O)c3ccccc3)C2C(OCc2ccccc2)=C1 (configuration not stated)
> 100 µM: [1] | [2] | [3] | [4] | [5] | [6] | [7] | [8] | [9] | [10] | [11] | [12] | [13] | [14] | [15] | [16] | [17] | [18] | [19] | [20] | [21] | [22] | [23] | [24] | [25] | [26] | [27] | [28] | [55] | [29] | [30] | [31] | [32] | [33] | [34] | [35] | [36] | [37] | [38] | [40] | [42] | [43] | [56] | [44] | [45] | [47] | [49] | [50] | [51] | [52] | [53] | [54]

NC(CSC(=O)c1ccccc1)C(=O)O (configuration not stated)
> 100 µM: [1] | [57] | [2] | [3] | [4] | [5] | [6] | [7] | [8] | [9] | [11] | [12] | [13] | [14] | [58] | [15] | [16] | [17] | [19] | [20] | [21] | [22] | [23] | [24] | [25] | [26] | [27] | [28] | [55] | [29] | [30] | [31] | [32] | [33] | [34] | [35] | [36] | [37] | [38] | [39] | [40] | [41] | [42] | [43] | [56] | [44] | [45] | [46] | [47] | [48] | [49] | [50] | [51] | [52] | [53] | [54]
